Laboratory results as given in US12453757B2, “Method for ameliorating autism symptoms by pharmacological activation of the neurotensin receptor 1 (NTSR1)” (New York Institute of Technology, priority 2022, dated 2025).
Where a name gives a salt, the structure may show the parent alone. Numbered stars: 1 amine (or outer) side, 2 acyl side, 3 side chain; on linkers, the order of the positions; unused ones are H or OH. Square brackets hold non-standard residues; d marks the D form. Peptide text beside a SMILES is read from it. X1 = NCCCC[C@H](N)CN([C@@H](CCCCN)C(=O)[*:2])[*:1]; Tle = CC(C)(C)[C@H](N)C(=O)O

Legend:
[1] = test system: SHANK3 haploinsufficiency mouse model of autism; assay: Odor detection in novel background odors (go/no-go behavioral task), SHANK3 haploinsufficiency mice; format: in vivo; conditions: 6 mice, 0.13 mg/kg subcutaneous in saline, 30 minutes before test, chance 0.5, optimal 1
Procedure: (§1) FIG. 1: Behavioral task used to test the effect of PD149163. Water-deprived, head-fixed mice were trained to identify target odors in the presence of background odors. […] If the target was the “go target” odors and the mouse licked, the mouse was rewarded with a small amount water. If the mouse wrongly licked the “no-go target” odors, no water was delivered and it was given a time out. After 10-13 days, mice performance exceeded 80%. The mice were then tested with the test set, that consisted of the same target odors but with novel background odors.
(§2) In order to test the effect of NTSR1 agonists, a novel behavioral task was used developed in the lab. In this task (see FIG. 1), water-deprived, head-fixed mice were trained to identify target odors in the presence of background odors. If the mouse responded to the go target odors, it was rewarded with water. If the mouse wrongly responded to the no-go target odors, no water was delivered and it experienced a time out. Chance performance was 0.5 and optimal performance was 1. After mice mastered this task (performance>0.8) with a set of known background odors after ˜10 days of training, the animals were tested with the same targets but in the presence of novel background odors. The performance of WT mice with novel background odors is above chance (0.74, 95% CI: 0.68-0.80, 3 WT mice). […]

[2] = test system: CNTNAP2 knockout mouse model of autism; assay: Odor detection in novel background odors (go/no-go behavioral task), CNTNAP2 knockout mice; format: in vivo
Procedure: as §1
In order to test the effect of NTSR1 agonists, a novel behavioral task was used developed in the lab. In this task (see FIG. 1), water-deprived, head-fixed mice were trained to identify target odors in the presence of background odors. If the mouse responded to the go target odors, it was rewarded with water. If the mouse wrongly responded to the no-go target odors, no water was delivered and it experienced a time out. Chance performance was 0.5 and optimal performance was 1. After mice mastered this task (performance>0.8) with a set of known background odors after ˜10 days of training, the animals were tested with the same targets but in the presence of novel background odors. The performance of WT mice with novel background odors is above chance (0.74, 95% CI: 0.68-0.80, 3 WT mice).
This novel behavioral task was used to test the effects of the neurotensin receptor 1 agonists. The performances of both mouse models of autism without PD149163 (a peptide neurotensin receptor 1 agonist) were lower than the performance of the WT mice (SHANK3 haploinsufficiency: 0.62, 95% CI: 0.59-0.66, 6 mice, each mouse tested on 4 different days, CNTNAP2 knockout: 0.61, 95% CI: 0.56-0.65, 4 mice) (see FIG. 2). […] This dosage reversed the recognition deficit in novel environments shown by both mouse models of autism, with performance that matched the performance of the WT mice (SHANK3 haploinsufficiency: 0.81, 95% CI: 0.77-0.85, 6 mice, each mouse tested on 2 different days, CNTNAP2 knockout: 0.82, 95% CI: 0.77-0.86, 4 mice). […]

[3] = test system: SHANK3 and CNTNAP2 mouse models of autism; assay: Odor detection in novel background odors, both mouse models of autism pooled (dose response, duration); format: in vivo
Procedure: FIG. 3: Performance of odor detection in novel environments as a function of the dose of PD149163 injected subcutaneously using saline as vehicle. The bars represent the average performance for all 10 tested mice (four CNTNAP2 mice and six SHANK3 mice) at the three doses tested. The error bars are the 95% CI. The lines represent the performance for individual mice. The p values were calculated using paired t-test to compare the average performances of the 10 tested mice using the 0.13 mg/kg against the 0.065 mg/kg dose and the no drug condition.
as §2

mice = assay: Lethargy side effect after injection; format: in vivo, mouse

CCOC(=O)[C@H](CC(C)C)NC(=O)[C@@H](NC(=O)[C@H](Cc1c[nH]c2ccccc12)NC(=O)[C@@H]1CCCN1C(=O)[C@H](CCCCN)NC[C@@H](N)CCCCN)C(C)(C)C [PD149163, N2-[(2S)-2,6-Diaminohexyl]-L-lysyl-L-prolyl-L-tryptophyl-3-methyl-L-valyl-L-Leucine ethyl ester tetrahydrochloride hydrate] (H-[X1]PW[Tle]L-OEt)
Performance of odor detection with novel background odors [1]: 0.81 | Performance of odor detection with novel background odors ([2]; CNTNAP2 knockout male mice (2 mice, 2 sessions), 0.39 mg/kg in PEG400 (80 μg/ml), two subcutaneous injections 1 hour and 30 minutes before task): 0.76 | Performance of odor detection with novel background odors ([2]; CNTNAP2 knockout male mice (2 mice, 5 sessions), 0.13 mg/kg subcutaneous in saline, 30 minutes before test): 0.54 | Performance of odor detection with novel background odors ([2]; CNTNAP2 knockout, 4 mice, 0.13 mg/kg subcutaneous in saline, 30 minutes before test, chance 0.5, optimal 1): 0.82 | Duration of drug effects on performance ([3]; 0.13 mg/kg subcutaneous in saline, returned to baseline the next day): less than 24 hours | Improvement of behavior (odor detection performance) ([3]; half dose 0.065 mg/kg subcutaneous, saline as vehicle): did not produce an improvement | Lethargy (mice; 0.26 mg/Kg subcutaneous, PEG400 as vehicle, 2 SHANK3 mice): no lethargy | Lethargy (mice; 0.26 mg/kg subcutaneous, saline as vehicle): produced lethargy | Lethargy (mice; therapeutic dose by intraperitoneal injection instead of subcutaneous): resulted also in lethargy
